A short description of this data set: solubility compared with docetaxel trihydrate. The settings on record: relative to docetaxel trihydrate; statement in words, no method or figures given. The data set is classed as physicochemical.

Take `CC(=O)O[C@@]12CO[C@@H]1C[C@H](O)[C@@]1(C)C(=O)[C@H](O)C3=C(C)[C@@H](OC(=O)[C@H](O)[C@@H](NC(=O)OC(C)(C)C)c4ccccc4)C[C@@](O)([C@@H](OC(=O)c4ccccc4)[C@H]21)C3(C)C` [docetaxel polymorph of the invention, docetaxel]: the solubility entry was “greater solubility than docetaxel trihydrate”.

The values are drawn from patent publication US20070142457A1, “Crystalline forms of docetaxel and processes for their preparation” (priority 2005, published 2007).
